Measured values from ChEMBL document CHEMBL3046638, “Synthesis and anticonvulsant activity of novel imidazol5(4H)one and 5-oxo-4,5-dihydroimidazol-1-yl)propanamide derivatives” (Med Chem Res, 2012).

Columns and labels:
[1] = system: Mus musculus; test: Anticonvulsant activity in Mus musculus albino (mouse) assessed as protection against maximal electroshock-induced seizures at 100 mg/kg, po after 1 hr relative to phenytoin; type: functional
[2] = system: Mus musculus; test: Neurotoxicity in Mus musculus albino (mouse) assessed as stability time on rotorod at 100 mg/kg, po after 30 min; type: toxicity, organism-based; design: dose 100 mg/kg, route oral; settings: in vivo, 0.5 h
[3] = system: Mus musculus; test: Anticonvulsant activity in Mus musculus albino (mouse) assessed as protection against maximal electroshock-induced seizures at 100 mg/kg, po after 1 hr; type: functional

Structure (SMILES)	Activity [1] [%]	Time [2] [s]	Activity [3] [%]
O=C(CNN1C(=O)/C(=C/c2ccc(F)cc2F)N=C1c1ccc(F)cc1)c1ccc(O)cc1	57.15	–	–
Cc1ccc(C(=O)CNN2C(=O)/C(=C/c3ccc(F)cc3F)N=C2c2ccc(F)cc2)cc1	92.84	174	–
COc1ccc(NC(=O)C(C)N2C(=O)/C(=C/c3ccc(F)cc3F)N=C2c2ccc(F)cc2)cc1 (centres undefined)	96.42	219	–
O=C(CNN1C(=O)/C(=C/c2ccc(F)cc2F)N=C1c1ccc(F)cc1)c1ccccc1	37.5	–	49.96
COc1ccc(C(=O)CNN2C(=O)/C(=C/c3ccc(F)cc3F)N=C2c2ccc(F)cc2)cc1	71.42	–	–
O=C(CNN1C(=O)/C(=C/c2ccc(F)cc2F)N=C1c1ccc(F)cc1)c1ccc(-c2ccccc2)cc1	96.42	–	–
O=C(CNN1C(=O)/C(=C/c2ccc(F)cc2F)N=C1c1ccc(F)cc1)c1ccc([N+](=O)[O-])cc1	64.28	–	–
CC(C(=O)Nc1ccc(C#N)cc1)N1C(=O)/C(=C/c2ccc(F)cc2F)N=C1c1ccc(F)cc1 (centres undefined)	96.42	285	–
CC(C(=O)Nc1ccccc1)N1C(=O)/C(=C/c2ccc(F)cc2F)N=C1c1ccc(F)cc1 (centres undefined)	24.77	–	-0.94
